Measurements taken from BigSolDB 2.1.

CC(C)(C)c1cc(CCC(=O)NCCCCCCNC(=O)CCc2cc(C(C)(C)C)c(O)c(C(C)(C)C)c2)cc(C(C)(C)C)c1O
solubility (mole fraction)
Details	283.15 K	288.15 K	293.15 K	298.15 K	303.15 K	308.15 K	313.15 K	318.15 K	323.15 K
in acetone	0.00214	0.00257	0.00297	0.00328	0.00419	0.00585	0.00747	0.01	0.0152
in ethanol	0.00775	0.00841	0.00982	0.011	0.0126	0.0148	0.0178	0.0218	0.0264
in ethyl acetate	0.000614	0.000852	0.00109	0.00123	0.00155	0.00192	0.00258	0.00376	0.00527
in ethyl formate	0.00151	0.00205	0.00207	0.00254	0.00309	0.00406	0.00501	0.00622	0.00879
in isopropanol	0.00326	0.00345	0.004	0.00459	0.00552	0.00688	0.00872	0.0107	0.0129
in methanol	0.00197	0.0023	0.00263	0.0032	0.00388	0.00506	0.00666	0.00874	0.012
in methyl acetate	0.000498	0.000804	0.000846	0.00107	0.00137	0.00185	0.00239	0.00359	0.00538
in n-propanol	0.00711	0.00807	0.00974	0.0116	0.0128	0.0153	0.0183	0.0223	0.0254
